# Data reported in patent publication US7659277B2, “Ubiquitin ligase inhibitors and methods related thereto” (Proteologies, Ltd., priority 2003, dated 2010).
# Legend:
# POSH = target: T1, POSH (Homo sapiens, UniProt Q7Z6J0); assay: Selectivity (% A in 1 μM), ubiquitin ligase activity of POSH; assay type: biochemical; conditions: read-out: Selectivity (% A* in 1 μM) POSH
# T1 construct: GST-POSH lot NB81/p.118 3.6 mg/ml; fused on or other part: GST tag, used for detection with anti-GST XL665
# T1 sequence (Q7Z6J0 1-269 limits assumed): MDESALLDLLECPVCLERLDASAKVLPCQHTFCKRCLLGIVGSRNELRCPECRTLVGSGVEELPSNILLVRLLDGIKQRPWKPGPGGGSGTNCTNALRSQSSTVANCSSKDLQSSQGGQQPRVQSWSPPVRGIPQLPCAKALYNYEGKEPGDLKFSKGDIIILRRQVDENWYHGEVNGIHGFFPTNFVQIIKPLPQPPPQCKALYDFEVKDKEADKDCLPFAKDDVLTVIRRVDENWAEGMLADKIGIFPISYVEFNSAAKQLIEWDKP
# Protocol: Experimental Protocols: 1. HTS Screening Assay Procedure • Microplates 10109D to 10114D compounds at 1 mM. • (Controls in column 1). • All compounds were perchase from ChemBridge corporation: ChemBridge corporation 16981 Via Tazon, Suite G San Diego, Calif. 92127 a. Microplates Labeling • Put labels to 6 PS U-bottom clear microplate. • Put labels to 18 black microplates (triplicats). b. Microplates Preparation • Put 100 μl GST-POSH at 33 nM in wells of the clear PS U-bottom microplates (exept wells A1-D1). • Negative control: place 100 μl dH2O in wells A1-D1. • (Positive control: place 100 μl GST-POSH at 33 nM in wells E1-H1). • Put 8 μl enzymes solution ×4 to black microplates (column 1 to 11). c. Incubation of E3 with Compounds • Transfer 5 μl of compounds (at 1 mM) to the microplates containing 100 μl GST-POSH. • Add 5 μl of DMSO to controls column 1. • Incubation 30 minutes at RT. d. […] 2. […] Microplates Labeling • Put labels to 4 clear PP clear microplate (18.2 μM, 9.1 uM, 1.82 uM, 910 nM,). • Put labels to 5 clear PS U-bottom clear microplate 4.44 μM, 909, 444, 91 and 44 nM) • Put labels to 15 black microplates (triplicates). f. Original Microplate Dilutions • Put DMSO 40 μl to (18.2 μM, 1.82 uM plates) and 20 ul to (9.1 uM, 910 nM plates. • Mix by pipetation the original microplate (3× up and down 45 μl). • Transfer 10 μl of compounds from the original microplate (at 91 μM) to the next microplate (=18.2 μM) on splitting apparatus. • Mix by pipetation the 18.2 uM microplate (3× up and down 45 μl). • Transfer 20 μl of compounds from the 18.2 uM microplate to the next microplate (=9.1 μM) on splitting apparatus. • Mix by pipetation the 9.1 uM microplate (3× up and down 45 μl). • Transfer 10 μl of compounds from the 9.1 uM microplate to the next microplate (=1.82 μM) on splitting apparatus. • Mix by pipetation the 1.82 uM microplate (3× up and down 45 μl). • Transfer 20 μl of compounds from the 1.82 uM microplate to the next microplate (=910 nM) on splitting apparatus • Mix by pipetation. g. Microplates Preparation • Put 123 μl GST-POSH at 33 nM in wells of the 5 clear PS U-bottom clear microplates. • Positive control: place 123 μl GST-POSH at 33 nM in well A12-h12 13 μl DMSO. • Negative control: place 123 μl dH2O in well B1 and 13 μl DMSO. • Put 8 μl enzymes solution ×4 to 15 black microplates. • Controls: put 8 μl enzymes solution ×4 to wells A1 to F1. h. Incubation of POSH with Compounds • Take 7 μl of compounds at original plate (91 μM) and put into the 4.44 μM labeled microplate containing 123 μl GST-POSH, on splitting apparatus. • Mix by pipetation (3× up and down 115 μl), note time. • Take 7 μl of compounds at 18.2 μM and put into the 910 nM labeled microplate containing 123 μl GST-POSH, on splitting apparatus. • Mix by pipetation (3× up and down 115 μl), note time. • Take 7 μl of compounds at 9.1 μM and put into the 444 nM labeled microplate containing 123 μl GST-POSH, on splitting apparatus. • Mix by pipetation (3× up and down 115 μl), note time. • Take 7 μl of compounds at […] and put into the 91 nM labeled microplate containing 123 μl GST-POSH, on splitting apparatus. • Mix by pipetation (3× up and down 115 μl), note time. • Take 7 μl of compounds at 91.0 nM and put into the 44 nM labeled microplate containing 123 μl GST-POSH, on splitting apparatus. • Mix by pipetation (3× up and down 115 μl), note time. • Incubation 30 minutes at RT. i.
# Hmdm2 = Hmdm2 (Homo sapiens, UniProt Q00987); assay: Selectivity (% A in 1 μM), ubiquitin ligase activity of Hmdm2; assay type: biochemical; conditions: read-out: Selectivity (% A* in 1 μM) Hmdm2
# Hmdm2, sequence (Q00987 whole entry): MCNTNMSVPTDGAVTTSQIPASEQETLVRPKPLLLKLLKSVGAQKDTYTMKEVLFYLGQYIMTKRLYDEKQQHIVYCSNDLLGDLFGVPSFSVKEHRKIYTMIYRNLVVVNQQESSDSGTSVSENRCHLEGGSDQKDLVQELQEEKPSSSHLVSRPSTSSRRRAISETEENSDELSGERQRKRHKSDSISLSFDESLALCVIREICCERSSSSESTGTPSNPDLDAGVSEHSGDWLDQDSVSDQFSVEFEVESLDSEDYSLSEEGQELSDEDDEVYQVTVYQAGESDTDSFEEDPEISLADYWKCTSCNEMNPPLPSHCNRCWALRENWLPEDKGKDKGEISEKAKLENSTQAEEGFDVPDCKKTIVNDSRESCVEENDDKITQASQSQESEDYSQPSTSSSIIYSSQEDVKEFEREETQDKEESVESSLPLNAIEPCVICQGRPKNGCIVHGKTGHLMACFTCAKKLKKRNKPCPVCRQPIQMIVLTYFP
# HIV-1 = assay: HIV maturation (budding) in virus-like particle assay, HIV-1 p24 antigen ELISA; assay type: cell-based; conditions: Human immunodeficiency virus 1, read-out: Budding (3 μM)
# Description: Compounds were further assessed for effects on maturation of HIV particles in a virus-like particle assay.
Structure (SMILES),remaining activity at 1 µM (POSH) [%],remaining activity at 1 µM (Hmdm2) [%],activity at 3 µM (HIV-1) [%]
CC(C)(C)c1ccc(O)c(/N=C/C=C/c2cccc([N+](=O)[O-])c2)c1 [Compound 59],26,112,61
O=C1C=CC(=O)N1c1ccc(OC(F)(F)C(F)F)c(N2C(=O)C=CC2=O)c1 [Compound 20],33,132,60
O=[N+]([O-])c1ccc(CN2CCN(c3cccc(Cl)c3)CC2)o1 [Compound 80],50,95,55
COc1ccc(/C=N/c2ccc(Nc3ccccc3)cc2)c2ccccc12 [Compound 55],40,58,55
O=C1C(=Cc2ccc(-c3ccc(Br)cc3)o2)C(=O)c2ccccc21 [Compound 38],17,111,38
CN(C)c1ccc(/C=C2\C(=O)N(c3ccc([N+](=O)[O-])cc3)N=C2N2CCOCC2)cc1 [Compound 42],138,111,51
O=C(O)c1ccc(-c2ccc(/C=c3\sc4nc5ccccc5n4c3=O)o2)cc1 [Compound 28],26,90,54
OCc1cccc(/N=C/c2cccc(O)c2O)c1 [Compound 57],20,80,61
Cc1c(C(=O)/C=C/c2cccs2)c2cc(O)ccc2n1C [Compound 76],35,110,48
O=C1C=CC(=O)N1c1ccccc1Cl [Compound 18],24,101,41
S=C(c1ccc(-c2cc(Cl)ccc2Cl)o1)N1CCCCC1 [Compound 35],44,101,56
Cc1c(C(=O)/C=C/c2ccccc2)c2cc(O)ccc2n1C [Compound 75],103,113,39
COc1ccc(NC(=O)c2cc3cccc(N)c3cc2O)cc1 [Compound 114],31,85,46
CN1C(=O)/C(=C\c2ccc(-c3cccc([N+](=O)[O-])c3)o2)SC1=S [Compound 115],8,108,48
O=c1/c(=C/c2ccc(N3CCOCC3)cc2)sc2nc3ccccc3n12 [Compound 32],66,141,67
O=C1C=CC(=O)N1c1ccc(Cl)cc1 [Compound 19],39,100,52
CCCCOc1ccc(NC(=S)N2CCn3c4c(c(=O)c5cc(C)ccc53)CCC42)cc1 (stereo not drawn) [Compound 81],3,73,63
Cc1ccc(/N=C/c2cc(Br)cc(Br)c2O)c(C)c1 [Compound 54],30,124,54
